Measured values reported in ChEMBL document CHEMBL6121013, “Novel antimalarial 3-substituted quinolones isosteres with improved pharmacokinetic properties” (Eur J Med Chem, 2025).
Values after ≈ are worked out from the molar mass of the structure shown.

Key:
[1] = Metabolic stability in human liver microsomes assessed as intrinsic clearance incubated for 0.5 to 30 mins by LC-MS/MS analysis; format: ADME, Microsome; settings: time 0.5-30 min, read-out: CLH
[2] = Metabolic stability in rat hepatocytes assessed as intrinsic clearance measured at 10^6 cells incubated for 5 to 120 mins by LC-MS/MS analysis; format: ADME, cell-based, Hepatocyte; settings: time 5-120 min, read-out: CLH
[3] = Lipophilicity, logD of the compound at pH 7.4 by shake flask method; format: physicochemical; settings: buffer
[4] = Solubility of the compound at pH 7.4; format: physicochemical; settings: buffer
[5] = Plasma protein binding in human assessed as free fraction incubated for 6 hrs by LC-MS/MS analysis; format: ADME, cell-free
Plasmodium falciparum = assay: Antimalarial activity against chloroquine-resistant Plasmodium falciparum W2 assessed as reduction in malarial growth incubated for 72 hrs by Spectrophotometric analysis; format: functional, organism-based; settings: W2, 72 h
[6] = Clearance in mouse administered intravenously; format: ADME; settings: in vivo, route iv
[7] = Oral bioavailability in male CD1 mouse at 50 mg/kg by LC-MS analysis; format: ADME, organism-based; settings: in vivo
[8] = AUC in male CD1 mouse at 50 mg/kg, po by LC-MS analysis; format: ADME, organism-based; settings: in vivo
[9] = Clearance in male CD1 mouse at 2 mg/kg, iv by LC-MS analysis; format: ADME, organism-based; settings: in vivo
[10] = Half life in male CD1 mouse at 2 mg/kg, iv by LC-MS analysis; format: ADME, organism-based; settings: in vivo
[11] = Cmax in male CD1 mouse at 50 mg/kg, po by LC-MS analysis; format: ADME, organism-based; settings: in vivo

Row | SMILES | microsomal CLint [1] [µL/min/mg] | hepatocyte CLint [2] [µL/min/1e6 cells] | logD [3] | solubility [4] [µM] | fraction unbound at 6 h [5] | IC50 (Plasmodium falciparum) [nM] | other results
1 | Cc1[nH]c2ccccc2c(=O)c1-c1ccc(Oc2ccc(OC(F)(F)F)cc2)cc1 | < 3 | 6.17 | 4.9 | 3 (≈ 1.23 µg/mL) | 0.0009 | 92 | –
2 | COc1cc2[nH]c(C)c(-c3ccc(Oc4ccc(OC(F)(F)F)cc4)cc3)c(=O)c2cc1Cl | – | – | – | – | – | – | clearance [6]: 0.7 mL/min/kg
3 | Cc1[nH]c2c(c(=O)c1-c1ccc(Oc3ccc(OC(F)(F)F)cc3)cc1)CCCC2 | < 3 | 9.05 | 4.5 | 0.2 (≈ 0.0831 µg/mL) | 0.0013 | 157 | –
4 | Cc1[nH]c2c(c(=O)c1-c1ccc(Cl)cc1)CCCCC2 | – | – | – | – | – | 3800 | –
5 | Cc1[nH]c2c(c(=O)c1-c1ccc(F)cc1)CCCCC2 | – | – | – | – | – | 4970 | –
6 | Cc1[nH]c2c(c(=O)c1-c1ccc(F)cc1)CCOC2 | – | – | – | – | – | 8410 | –
7 | Cc1[nH]c2c(c(=O)c1-c1ccc(Oc3ccc(OC(F)(F)F)cc3)cc1)CCCCC2 | – | – | – | – | – | 1520 | –
8 | Cc1[nH]c2c(c(=O)c1-c1ccc(Cl)cc1)CC(F)(F)CC2 | < 3 | < 1 | 2.7 | 20 (≈ 6.19 µg/mL) | 0.12 | 235 | bioavailability [7]: 23.4%; AUC [8]: 405 µg·h/mL; clearance [9]: 0.47 mL/min/kg; half-life [10]: 6.39 h; Cmax [11]: 28900 ng/mL
9 | Cc1[nH]c2c(c(=O)c1-c1ccc(-c3ccc(OC(F)(F)F)cc3)nc1)COCC2 | – | – | – | – | – | > 10000 | –
10 | Cc1[nH]c2c(c(=O)c1-c1ccc(F)cc1)CCCC2 | – | – | – | – | – | 4800 | –
11 | Cc1[nH]c2c(c(=O)c1-c1ccc(-c3ccc(OC(F)(F)F)cc3)nc1)CCCC2 | – | – | – | – | – | 1150 | –
12 | Cc1[nH]c2c(c(=O)c1-c1ccc(Cl)cc1)CCCC2 | – | – | – | – | – | 956 | –
13 | Cc1[nH]c2c(c(=O)c1-c1ccc(Cl)cc1)COCC2 | – | – | – | – | – | > 10000 | –
14 | Cc1[nH]c2c(c(=O)c1-c1ccc(F)cc1)COCC2 | – | – | – | – | – | > 10000 | –
15 | Cc1[nH]c2c(c(=O)c1-c1ccc(Oc3ccc(OC(F)(F)F)cc3)cc1)CC(F)(F)CC2 | < 3 | < 1 | 3.9 | 2 (≈ 0.903 µg/mL) | 0.0029 | 285 | –
16 | Cc1[nH]c2c(c(=O)c1-c1ccc(Oc3ccc(OC(F)(F)F)cc3)cc1)COCC2 | < 3 | 2.63 | 3.8 | 140 (≈ 58.4 µg/mL) | 0.0065 | 528 | –
17 | Cc1[nH]c2c(c(=O)c1-c1ccc(Oc3ccc(OC(F)(F)F)cc3)cc1)CCOC2 | – | – | – | – | – | 446 | –
18 | Cc1[nH]c2c(c(=O)c1-c1ccc(F)cc1)CC(F)(F)CC2 | < 3 | < 1 | 1.7 | 68 (≈ 19.9 µg/mL) | 0.3 | 597 | –
19 | Cc1[nH]c2c(c(=O)c1-c1ccc(OC(F)(F)F)cc1)CCCC2 | 25.6 | 1.14 | 3.3 | 14 (≈ 4.53 µg/mL) | 0.15 | 354 | –
